Columns and labels:
Test in all cases: relative viability (nuclei count vs DMSO), 5 days (fraction); higher = more cells survive
LCLC-103H = system: LCLC-103H
Procedure, shortened: (§1)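 Nuclei were stained with Hoechst during a one-step fixation (final 0.05% Triton X-100, 1% formaldehyde, 1 ug/ml Hoechst) carried out 5 days after dosing, then counted on 4× images. The cells, lung cancer lines in 1536-well plates, had been dosed by pin tool the day after seeding with one drug alone or a fixed anchor-drug dose plus five library-drug doses (not always all listed) in √10 steps. Relative viability is the nuclei count in treated wells divided by that in vehicle wells, and each value is the median of duplicate plates.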

NCI-H1993 = system: NCI-H1993
Procedure, shortened: as §1

RERF-LC-KJ = system: RERF-LC-KJ
Procedure, shortened: as §1

NCI-H1651 = system: NCI-H1651
Procedure, shortened: as §1

HOP-62 = system: HOP-62
Procedure, shortened: as §1

COR-L 105 = system: COR-L 105
Procedure, shortened: as §1

COR-L23 = system: COR-L23
Procedure, shortened: as §1

NCI-H647 = system: NCI-H647
Procedure, shortened: as §1

SK-MES-1 = system: SK-MES-1
Procedure, shortened: as §1

NCI-H1395 = system: NCI-H1395
Procedure, shortened: as §1

NCI-H2085 = system: NCI-H2085
Procedure, shortened: as §1

NCI-H3122 = system: NCI-H3122
Procedure, shortened: as §1

NCI-H1975 = system: NCI-H1975
Procedure, shortened: as §1

PC-14 = system: PC-14
Procedure, shortened: as §1

NCI-H2087 = system: NCI-H2087
Procedure, shortened: as §1

LXF-289 = system: LXF-289
Procedure, shortened: as §1

NCI-H596 = system: NCI-H596
Procedure, shortened: as §1

EPLC-272H = system: EPLC-272H
Procedure, shortened: as §1

NCI-H2023 = system: NCI-H2023
Procedure, shortened: as §1

NCI-H2170 = system: NCI-H2170
Procedure, shortened: as §1

NCI-H650 = system: NCI-H650
Procedure, shortened: as §1

A-427 = system: A-427
Procedure, shortened: as §1

CAL-12T = system: CAL-12T
Procedure, shortened: as §1

Structure (SMILES): Cc1cnc(-c2cnc(NCCNc3ccc(C#N)cn3)nc2-c2ccc(Cl)cc2Cl)[nH]1 + Cc1cc(Nc2cc(N3CCN(C)CC3)nc(Sc3ccc(NC(=O)C4CC4)cc3)n2)n[nH]1 [Tozasertib] (partner 0.1 µM)
- relative viability (LCLC-103H; first compound 0.08 µM): 0.503
- relative viability (LCLC-103H; first compound 0.253 µM): 0.417
- relative viability (LCLC-103H; first compound 0.8 µM): 0.429
- relative viability (LCLC-103H; first compound 2.53 µM): 0.426
- relative viability (NCI-H1993; first compound 0.08 µM): 0.583
- relative viability (NCI-H1993; first compound 0.253 µM): 0.558
- relative viability (NCI-H1993; first compound 0.8 µM): 0.573
- relative viability (NCI-H1993; first compound 2.53 µM): 0.538
- relative viability (RERF-LC-KJ; first compound 0.08 µM): 0.544
- relative viability (RERF-LC-KJ; first compound 0.253 µM): 0.436
- relative viability (RERF-LC-KJ; first compound 0.8 µM): 0.367
- relative viability (RERF-LC-KJ; first compound 2.53 µM): 0.382
- relative viability (NCI-H1651; first compound 0.08 µM): 0.7
- relative viability (NCI-H1651; first compound 0.253 µM): 0.648
- relative viability (NCI-H1651; first compound 0.8 µM): 0.682
- relative viability (NCI-H1651; first compound 2.53 µM): 0.565
- relative viability (HOP-62; first compound 0.08 µM): 0.321
- relative viability (HOP-62; first compound 0.253 µM): 0.353
- relative viability (HOP-62; first compound 0.8 µM): 0.36
- relative viability (HOP-62; first compound 2.53 µM): 0.288
- relative viability (COR-L 105; first compound 0.08 µM): 0.349
- relative viability (COR-L 105; first compound 0.253 µM): 0.327
- relative viability (COR-L 105; first compound 0.8 µM): 0.346
- relative viability (COR-L 105; first compound 2.53 µM): 0.298
- relative viability (COR-L23; first compound 0.08 µM): 0.205
- relative viability (COR-L23; first compound 0.253 µM): 0.181
- relative viability (COR-L23; first compound 0.8 µM): 0.164
- relative viability (COR-L23; first compound 2.53 µM): 0.109
- relative viability (NCI-H647; first compound 0.08 µM): 0.306
- relative viability (NCI-H647; first compound 0.253 µM): 0.163
- relative viability (NCI-H647; first compound 0.8 µM): 0.263
- relative viability (NCI-H647; first compound 2.53 µM): 0.172
- relative viability (SK-MES-1; first compound 0.08 µM): 0.964
- relative viability (SK-MES-1; first compound 0.253 µM): 0.854
- relative viability (SK-MES-1; first compound 0.8 µM): 0.999
- relative viability (SK-MES-1; first compound 2.53 µM): 0.861
- relative viability (NCI-H1395; first compound 0.08 µM): 0.778
- relative viability (NCI-H1395; first compound 0.253 µM): 0.856
- relative viability (NCI-H1395; first compound 0.8 µM): 0.872
- relative viability (NCI-H1395; first compound 2.53 µM): 0.756
- relative viability (NCI-H2085; first compound 0.08 µM): 0.886
- relative viability (NCI-H2085; first compound 0.253 µM): 0.684
- relative viability (NCI-H2085; first compound 0.8 µM): 0.56
- relative viability (NCI-H2085; first compound 2.53 µM): 0.469
- relative viability (NCI-H3122; first compound 0.08 µM): 0.414
- relative viability (NCI-H3122; first compound 0.8 µM): 0.392
- relative viability (NCI-H3122; first compound 2.53 µM): 0.33
- relative viability (NCI-H1975; first compound 0.08 µM): 0.717
- relative viability (NCI-H1975; first compound 0.253 µM): 0.659
- relative viability (NCI-H1975; first compound 0.8 µM): 0.508
- relative viability (NCI-H1975; first compound 2.53 µM): 0.132
- relative viability (PC-14; first compound 0.08 µM): 0.611
- relative viability (PC-14; first compound 0.253 µM): 0.47
- relative viability (PC-14; first compound 0.8 µM): 0.551
- relative viability (PC-14; first compound 2.53 µM): 0.549
- relative viability (NCI-H2087; first compound 0.08 µM): 0.249
- relative viability (NCI-H2087; first compound 0.253 µM): 0.203
- relative viability (NCI-H2087; first compound 0.8 µM): 0.211
- relative viability (NCI-H2087; first compound 2.53 µM): 0.128
- relative viability (LXF-289; first compound 0.08 µM): 0.223
- relative viability (LXF-289; first compound 0.253 µM): 0.155
- relative viability (LXF-289; first compound 0.8 µM): 0.18
- relative viability (LXF-289; first compound 2.53 µM): 0.161
- relative viability (NCI-H596; first compound 0.08 µM): 0.925
- relative viability (NCI-H596; first compound 0.253 µM): 0.752
- relative viability (NCI-H596; first compound 0.8 µM): 0.839
- relative viability (NCI-H596; first compound 2.53 µM): 0.793
- relative viability (EPLC-272H; first compound 0.08 µM): 0.321
- relative viability (EPLC-272H; first compound 0.253 µM): 0.255
- relative viability (EPLC-272H; first compound 0.8 µM): 0.249
- relative viability (EPLC-272H; first compound 2.53 µM): 0.197
- relative viability (NCI-H2023; first compound 0.08 µM): 0.353
- relative viability (NCI-H2023; first compound 0.253 µM): 0.362
- relative viability (NCI-H2023; first compound 0.8 µM): 0.325
- relative viability (NCI-H2023; first compound 2.53 µM): 0.181
- relative viability (NCI-H2170; first compound 0.08 µM): 0.73
- relative viability (NCI-H2170; first compound 0.253 µM): 0.566
- relative viability (NCI-H2170; first compound 0.8 µM): 0.713
- relative viability (NCI-H2170; first compound 2.53 µM): 0.699
- relative viability (NCI-H650; first compound 0.08 µM): 0.726
- relative viability (NCI-H650; first compound 0.253 µM): 0.746
- relative viability (NCI-H650; first compound 0.8 µM): 0.675
- relative viability (NCI-H650; first compound 2.53 µM): 0.734
- relative viability (A-427; first compound 0.08 µM): 0.232
- relative viability (A-427; first compound 0.253 µM): 0.194
- relative viability (A-427; first compound 0.8 µM): 0.235
- relative viability (A-427; first compound 2.53 µM): 0.186
- relative viability (CAL-12T; first compound 0.08 µM): 0.346
- relative viability (CAL-12T; first compound 0.253 µM): 0.302
- relative viability (CAL-12T; first compound 0.8 µM): 0.234
- relative viability (CAL-12T; first compound 2.53 µM): 0.211

Source: the supplement of paper PMC10307832
